Literature values, collected in patent US6329550A, “Amidomalonamides useful as inhibitors of MMP of matrix metalloproteinase” (Aventis Pharmaceuticals Inc., priority 1999, dated 2001).

Test system: B16-BL6 murine melanoma
Conditions: intraperitoneal administration; lung colonies produced by intravenous injection of B16-BL6 murine melanoma in C57BL/6N mice

Q: With `CNC(=O)[C@H](Cc1ccccc1)NC(=O)[C@H](CC(C)C)[C@H](CSc1cccs1)C(=O)NO` [batimastat] as the compound, how does the “growth and metastatic spread and number of lung colonies” value read?
A: significant inhibition
